Measurements published in publication PMC11786723, “Endoplasmic reticulum membrane remodeling by targeting reticulon-4 induces pyroptosis to facilitate antitumor immune” (Protein & Cell, 2024).

Columns and labels:
reticulon-4 (RTN4/Nogo) [1] = molecular target: T1, reticulon-4 (RTN4/Nogo) (Homo sapiens, UniProt Q9NQC3); experiment: microscale thermophoresis (MST); supported by competitive pull-down; assay type: binding; set-up: RTN4B isoform focused on; MST construct printed only as RTN4
T1 sequence (Q9NQC3 1-373 isoform Q9NQC3-2): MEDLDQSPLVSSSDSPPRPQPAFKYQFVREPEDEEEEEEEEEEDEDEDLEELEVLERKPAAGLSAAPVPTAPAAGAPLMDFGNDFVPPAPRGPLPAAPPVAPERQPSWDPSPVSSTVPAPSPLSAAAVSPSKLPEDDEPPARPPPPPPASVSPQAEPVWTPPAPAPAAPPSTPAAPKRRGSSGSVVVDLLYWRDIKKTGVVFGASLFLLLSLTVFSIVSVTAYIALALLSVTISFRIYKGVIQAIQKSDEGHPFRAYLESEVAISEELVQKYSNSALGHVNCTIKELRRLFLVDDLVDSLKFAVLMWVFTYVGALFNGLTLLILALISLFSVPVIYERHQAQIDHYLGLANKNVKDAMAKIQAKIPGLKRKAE

reticulon-4 (RTN4/Nogo) [2] = molecular target: T1, reticulon-4 (RTN4/Nogo); experiment: microscale thermophoresis (MST); HuProt human proteome microarray and competitive pull-down; assay type: binding; set-up: RTN4B isoform predominantly captured in pull-down; MST construct printed only as RTN4

COc1c(O)cc2oc3cc(O)c(CC=C(C)C)c(O)c3c(=O)c2c1CC=C(C)C [α-MG, α-mangostin]
Kd (reticulon-4 (RTN4/Nogo) [1]): 12.1 ± 1.28 nM

biotin-α-MG
Kd (reticulon-4 (RTN4/Nogo) [2]): 39 ± 1.09 nM
